In US8497276B2, “Substituted indolo-piperidine compounds” (ArQule, Inc., priority 2009, dated 2013):

How the values were obtained:
Kato III = assay: MTS Assay (cell growth inhibition), Kato III; assay type: cell-based; details: Kato III cells, 72 hours with test compound; concentration not given
Procedure: (§1) Cells were maintained at 37° C., 5% CO2 in DMEM media supplemented with 1% fetal bovine serum, penicillin/streptomycin and fungizone (Invitrogen). Cells were seeded into 96-well tissue culture plates at 3000 per well and cultured at 37° C. for 18 hours. Test compounds were dissolved and diluted to 300× in DMSO then diluted 1:40 in DMEM. Cells were incubated with test compounds for 72 hours followed by incubation with tetrazolium compound (3-(4,5-dimethylthiazol-2-yl)-5-(3-carboxymethoxyphenyl)-2-(4-sulfophenyl)-2H-tetrazolium, inner salt; MTS) and the electron coupling reagent, phenazine methosulfate (PMS) for 4 hours. […] The ability of compounds to inhibit cell growth in this assay is correlated with the reduction of dehydrogenase enzyme activity found in metabolically active cells. The measurement of the absorbance of the formazan was assessed using an ENVISION™ (Perkin Elmer) microplate reader at 492 nm. The calculated IC50 value is the concentration of the test compound that causes a 50% decrease in the absorbance.

NCI-H1299 = assay: MTS Assay (cell growth inhibition), NCI-H1299; assay type: cell-based; details: NCI-H1299 cells, 72 hours with test compound; concentration not given
Procedure: as §1

DLD-1 = assay: MTS Assay (cell growth inhibition), DLD-1; assay type: cell-based; details: DLD-1 cells, 72 hours with test compound; concentration not given
Procedure: as §1

PC-3 = assay: MTS Assay (cell growth inhibition), PC-3; assay type: cell-based; details: PC-3 cells, 72 hours with test compound; concentration not given
Procedure: as §1

MDA-MB 231 = assay: MTS Assay (cell growth inhibition), MDA-MB 231; assay type: cell-based; details: MDA-MB 231 cells, 72 hours with test compound; concentration not given
Procedure: as §1

Tec kinase = target: T1, Tec kinase (Homo sapiens, UniProt P42680); assay: Tec Kinase Activity Assay; assay type: biochemical; details: 75 μM ATP, Pyk-2 substrate; compound concentration not given
T1 sequence (P42680 1-631): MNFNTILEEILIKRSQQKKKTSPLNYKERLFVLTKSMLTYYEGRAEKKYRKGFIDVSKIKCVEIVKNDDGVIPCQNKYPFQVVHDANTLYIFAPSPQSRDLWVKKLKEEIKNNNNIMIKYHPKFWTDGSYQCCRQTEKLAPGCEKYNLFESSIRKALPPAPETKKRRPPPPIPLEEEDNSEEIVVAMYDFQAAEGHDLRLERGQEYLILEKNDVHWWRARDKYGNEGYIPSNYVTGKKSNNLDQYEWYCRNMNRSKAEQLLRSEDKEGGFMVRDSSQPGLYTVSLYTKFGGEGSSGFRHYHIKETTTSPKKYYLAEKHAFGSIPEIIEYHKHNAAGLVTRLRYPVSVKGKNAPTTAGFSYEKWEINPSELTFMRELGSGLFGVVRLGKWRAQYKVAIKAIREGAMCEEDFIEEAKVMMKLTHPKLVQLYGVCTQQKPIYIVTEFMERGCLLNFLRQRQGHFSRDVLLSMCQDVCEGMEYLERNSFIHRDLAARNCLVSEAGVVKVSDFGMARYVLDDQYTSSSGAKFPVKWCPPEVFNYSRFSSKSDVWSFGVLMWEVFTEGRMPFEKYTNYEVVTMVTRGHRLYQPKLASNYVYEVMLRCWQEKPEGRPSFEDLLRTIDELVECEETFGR
Procedure: The disclosed compounds were assayed for their ability to inhibit the activity of Tec kinase. Nunc Maxisorb plates were coated with streptavidin by overnight incubation with 100 μl per well of 1 μg/ml Streptavidin in DPBS. Prior to the start of the experiment, the plates were washed with TBST (3×200 μl) and blocked for at least 1 hour by adding 150 μl of 5% BSA/TBST. The plates were then washed with TBST (3×200 μl/well) and left dry immediately before the capture step.
The disclosed test compounds and controls (Staurosporine and Sutent) were prepared using the following assay buffer (50 mM Tris-HCl, 0.02 mg/ml BSA, 10 mM MgCl2, 0.1 mM Na3VO4, 1 mM EGTA, 75 μM ATP, 0.01% NP-40, 2 mM DTT in 10% glycerol/water) at 3× desired final concentration. 20 μl of the test compounds (or control) and 20 μl TEC (0.25 ng/μl) were rapidly added to a reaction plate. The plate was incubated for 30 minutes. 20 μl of Pyk-2 (0.5 ng/μl) was then added to the reaction plate. The plate was incubated at room temperature for two hours.
50 μl was transferred from the reaction plate to the streptavidin coated plate. The capture plate was incubated at room temperature for 30 minutes then washed with TBST 6 times. 100 μl/well of Cell Signaling anti-phospho tyrosine was added to the capture plate at a dilution of 1:3000 in 2% BSA/TBST. The plate was incubated for one hour at room temperature then washed with TBST 6 times. 100 μl/well of alkaline phosphatase tagged goat anti-mouse antibody was added to the capture plate at a dilution of 1:4000 in 2% BSA/TBST. The plate was incubated for one hour at room temperature then washed with TBST 6 times.
The fluorescent readout was initiated by the addition of 100 μl/well of Attophos reagent (6 mg/10 ml) and the reading was done on the Perkin Elmer Envision system.

PACA-2 = assay: MTS Assay (cell growth inhibition), PACA-2; assay type: cell-based; details: PACA-2 cells, 72 hours with test compound; concentration not given
Procedure: as §1

| Compound | MTS cell kill data (% inhibition) Kato III (Kato III) | MTS cell kill data (% inhibition) NCI-H1299 (NCI-H1299) | MTS cell kill data (% inhibition) DLD-1 (DLD-1) | MTS cell kill data (% inhibition) PC-3 (PC-3) | MTS cell kill data (% inhibition) MDA-MB 231 (MDA-MB 231) | Biochemical IC50 (% inhibition) Tec (Tec kinase) | MTS cell kill data (% inhibition) PACA-2 (PACA-2) |
| --- | --- | --- | --- | --- | --- | --- | --- |
| CC(C)c1ccc(C2c3[nH]c4ccccc4c3CCN2c2ncnc3[nH]ncc23)cc1 (stereo not drawn) [Compound 21, 1-(4-isopropylphenyl)-2-(1H-pyrazolo[3,4-d]pyrimidin-4-yl)-2,3,4,9-tetrahydro-1H-beta-carboline] | A (A = 80-100% inhibition) | A (A = 80-100% inhibition) | A (A = 80-100% inhibition) | B (B = 50-79% inhibition) | A (A = 80-100% inhibition) | B (B = 50-79% inhibition) | A (A = 80-100% inhibition) |
| Brc1n[nH]c2ncnc(N3CCc4c([nH]c5ccccc45)C3)c12 [Compound 1, 2-(3-bromo-1H-pyrazolo[3,4-d]pyrimidin-4-yl)-2,3,4,9-tetrahydro-1H-beta-carboline] | A (A = 80-100% inhibition) | B (B = 50-79% inhibition) | B (B = 50-79% inhibition) | C (C = <50% inhibition) | C (C = <50% inhibition) |  | B (B = 50-79% inhibition) |
| Nc1nc(N2CCc3c([nH]c4ccccc34)C2Cc2ccccc2)c2nc[nH]c2n1 (stereo not drawn) [Compound 16, 6-(1-benzyl-1,3,4,9-tetrahydro-2H-beta-carbolin-2-yl)-9H-purin-2-amine] | C (C = <50% inhibition) | C (C = <50% inhibition) | C (C = <50% inhibition) | C (C = <50% inhibition) | C (C = <50% inhibition) | C (C = <50% inhibition) | C (C = <50% inhibition) |
| Nc1nc(N2CCc3c([nH]c4ccccc34)C2CCc2ccccc2)c2nc[nH]c2n1 (stereo not drawn) [Compound 28, 6-[1-(2-phenylethyl)-1,3,4,9-tetrahydro-2H-beta-carbolin-2-yl]-9H-purin-2-amine] | C (C = <50% inhibition) | B (B = 50-79% inhibition) | B (B = 50-79% inhibition) | C (C = <50% inhibition) | C (C = <50% inhibition) | C (C = <50% inhibition) | C (C = <50% inhibition) |
| Fc1ccc(C2c3[nH]c4ccccc4c3CCN2c2ncnc3[nH]cnc23)cc1 (stereo not drawn) [Compound 5, 1-(4-fluorophenyl)-2-(9H-purin-6-yl)-2,3,4,9-tetrahydro-1H-beta-carboline] | A (A = 80-100% inhibition) | B (B = 50-79% inhibition) | C (C = <50% inhibition) | A (A = 80-100% inhibition) | A (A = 80-100% inhibition) | C (C = <50% inhibition) | C (C = <50% inhibition) |
| Cc1cccc(C2c3[nH]c4ccccc4c3CCN2c2ncnc3[nH]cnc23)c1 (stereo not drawn) [Compound 11, 1-(3-methylphenyl)-2-(9H-purin-6-yl)-2,3,4,9-tetrahydro-1H-beta-carboline] | A (A = 80-100% inhibition) | A (A = 80-100% inhibition) | A (A = 80-100% inhibition) | C (C = <50% inhibition) | B (B = 50-79% inhibition) | C (C = <50% inhibition) | B (B = 50-79% inhibition) |
| Cc1cccc(C2c3[nH]c4ccccc4c3CCN2c2ncnc3[nH]ncc23)c1 (stereo not drawn) [Compound 12, 1-(3-methylphenyl)-2-(1H-pyrazolo[3,4-d]pyrimidin-4-yl)-2,3,4,9-tetrahydro-1H-beta-carboline] | A (A = 80-100% inhibition) | B (B = 50-79% inhibition) | B (B = 50-79% inhibition) | C (C = <50% inhibition) | B (B = 50-79% inhibition) | B (B = 50-79% inhibition) | C (C = <50% inhibition) |
| Nc1nc(N2CCc3c([nH]c4ccccc34)C2c2cccc(C(F)(F)F)c2)c2cn[nH]c2n1 (stereo not drawn) [Compound 7, 4-{1-[3-(trifluoromethyl)phenyl]-1,3,4,9-tetrahydro-2H-beta-carbolin-2-yl}-1H-pyrazolo[3,4-d]pyrimidin-6-amine] | C (C = <50% inhibition) | C (C = <50% inhibition) | C (C = <50% inhibition) | A (A = 80-100% inhibition) | B (B = 50-79% inhibition) | C (C = <50% inhibition) | C (C = <50% inhibition) |
| c1ccc(C2c3[nH]c4ccccc4c3CCN2c2ncnc3[nH]ccc23)cc1 (stereo not drawn) [Compound 24, 1-phenyl-2-(7H-pyrrolo[2,3-d]pyrimidin-4-yl)-2,3,4,9-tetrahydro-1H-beta-carboline] | B (B = 50-79% inhibition) | B (B = 50-79% inhibition) | B (B = 50-79% inhibition) | C (C = <50% inhibition) | C (C = <50% inhibition) | B (B = 50-79% inhibition) | B (B = 50-79% inhibition) |
| c1ccc(CC2c3[nH]c4ccccc4c3CCN2c2ncnc3[nH]ccc23)cc1 (stereo not drawn) [Compound 14, 1-benzyl-2-(7H-pyrrolo[2,3-d]pyrimidin-4-yl)-2,3,4,9-tetrahydro-1H-beta-carboline] | A (A = 80-100% inhibition) | A (A = 80-100% inhibition) | B (B = 50-79% inhibition) | A (A = 80-100% inhibition) | A (A = 80-100% inhibition) | C (C = <50% inhibition) | B (B = 50-79% inhibition) |
